These results are taken from patent publication US20180153830A1, “SELECTIVE INHIBITORS OF UNDIFFERENTIATED CELLS” (Yissum Research Development Company of the Hebrew …, priority 2012, published 2018).

One assay deals with hPSC-derived teratomas. Kind of assay: Teratoma formation from pre-treated hPSCs in NOD-SCID IL2Rγ−/− mice. Particulars: for teratoma formation at the side injected with pre-treated cells: cells pre-treated before injection into mice; for Incidence of teratoma formation, undifferentiated cells only: hPSCs pre-treated 48 h with 20 μM. Type of assay: in vivo, mouse. How it is done:
Human embryonic stem cell and induced pluripotent stem cell lines were cultured without feeder cells in CELLSTAR® 6-well tissue culture plates (Greiner Bio-One) pre-coated with Matrigel™, using mTeSR1 defined medium. Cells were treated for 24 hours with either 20 μM PluriSIn #1 (isonicotinic acid N′-phenylhydrazide) in 0.2% DMSO or with 0.2% DMSO, followed by medium replacement and a second treatment for another 24 hours. 48 hours after initial exposure to the tested compound, cells were harvested with trypsin-EDTA and resuspended in a 1:1 mTeSR1:Matrigel™ mixture to a total volume of 200 μl. Cells were then injected subcutaneously to the back of NOD-SCID IL2Rγ−/− mice (Jackson Laboratory). Six weeks after injection mice were sacrificed, the formation of tumors was examined, and the resulting teratomas were photographed, dissected and cryopreserved in O.C.T. compound (Sakura Finetek, Torrance, Calif.).
Alternatively, human embryonic stem cells and induced pluripotent stem cells were spontaneously differentiated in culture for a period of 10 days, by growing them on gelatin-coated culture plates with 85% knockout DMEM medium supplemented with 15% knockout serum replacement, 1 mM glutamine, 0.1 mM β-mercaptoethanol, 1% nonessential amino acids, penicillin (50 U/ml) and streptomycin (50 μg/ml), without basic fibroblast growth factor (bFGF). Retinoic acid was added to the medium at a final concentration of 1 μM. 10 days later, the differentiated cells were harvested and plated at a 1:1 ratio with their undifferentiated parental cells in CELLSTAR® 6-well tissue culture plates (Greiner Bio-One) pre-coated with Matrigel™, with mTeSR1 defined medium. Cells were treated for 24 hours with either 20 μM PluriSIn #1 or 0.2% DMSO, followed by medium replacement and a second treatment for another 24 hours. 48 hours after initial exposure to the compound, cells were harvested with trypsin-EDTA and counted using a Countess automated cell counter (Invitrogen). 1 million viable cells from each condition were resuspended in a 1:1 mTeSR1:Matrigel™ mixture to a total volume of 200 μl. Cells were then injected subcutaneously to the back of NOD-SCID IL2Rγ−/− mice. Each mouse was injected with PluriSIn #1-treated cells into one side of its body and control-treated cells into the other side. Six weeks after injection mice were sacrificed, the formation of tumors was examined, and the resulting teratomas were photographed, dissected and cryopreserved in O.C.T. compound.
To evaluate in vivo tumorigenicity, hPSCs were cultured under the abovementioned conditions in the presence or absence of PluriSIn #1, and the cultures were then injected subcutaneously into immuno-compromised NOD-SCID IL2Rγ−/− mice, which have been previously reported to be especially susceptible to human-derived tumors [Quintana et al., Nature 456:593-598 (2008)]. Mice were sacrificed after 4-6 weeks, and teratoma formation was then assessed.
Similarly, CSES2-SO2 and BJ-iPS28 cell lines were injected into immune-compromised mice (2 mice for each cell line), with control cells and treated cells being injected into the two body sides of the same animal.
The effect of PluriSIns was on teratoma formation was then evaluated in a model designed to simulate a clinical setting. Human ES and iPS cells were spontaneously differentiated in culture for a period of 10 days, and the differentiated cells were then harvested and plated together with undifferentiated cells, in a 1:1 mixture of undifferentiated and differentiated cells, as described in the Materials and Methods section. Following a 48 hour exposure to PluriSIn #1, cells were harvested and injected subcutaneously into NOD-SCID IL2Rγ−/− mice, with each mouse being injected with PluriSin #1-treated cells into one side of its body and with control cells into the other side. The same total number of cells was injected into both sides.

Assay [1] has as its system spliced isoform sXBP1 in human ES cells. Description: sXBP1 quantitative PCR, ES cells. Type of assay: cell-based. Conditions: 20 μM PluriSIn #1 (12 hours) or 100 nm A939572.
For the next assay, the target named is T1, SCD1 (Homo sapiens, UniProt O00767).
T1 sequence (O00767 1-359): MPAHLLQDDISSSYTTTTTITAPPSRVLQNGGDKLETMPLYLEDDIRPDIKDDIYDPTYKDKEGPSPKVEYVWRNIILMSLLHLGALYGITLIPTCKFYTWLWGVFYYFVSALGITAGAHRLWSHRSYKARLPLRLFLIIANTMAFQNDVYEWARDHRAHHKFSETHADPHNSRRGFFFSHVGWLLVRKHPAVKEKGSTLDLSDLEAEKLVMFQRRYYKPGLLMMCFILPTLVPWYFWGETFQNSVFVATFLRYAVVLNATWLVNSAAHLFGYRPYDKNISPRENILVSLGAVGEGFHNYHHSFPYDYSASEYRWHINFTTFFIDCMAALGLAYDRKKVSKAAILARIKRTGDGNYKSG
Description: In vitro biochemical screen for SCD1 inhibitors. Particulars: previous studies. The text has this:
Inhibition of SCD1 has been reported to induce ER stress and UPR in some human cancer cell lines, leading to apoptosis of these cells [Roongta et al., Molecular Cancer Research 9:1551-1561 (2011); Minville-Walz et al., PloS One 5:e14363 (2010); Scaglia et al., PloS One 4:e6812 (2009); Hess et al., PloS One 5:e1394 (2010); Morgan-Lappe et al., Cancer Research 67:4390-4398 (2007); Mason et al., PLoS One 7:e33823 (2012)].

The test system of assay [2] is undifferentiated CSES2-SO2/3 embryonic stem cells. Description: Fluorescence microscopy imaging of undifferentiated CSES2-SO2/3 cells. Type of assay: cell-based, human. Particulars: for effect on undifferentiated cells: 24 hours of exposure. On the procedure:
High content imaging of CSES2-SO2/3 fluorescent cells (mCherry+ or EGFP+) was performed in black clear-bottom 384-well assay plates (Falcon BD), using the Opera high-content screen imaging platform (PerkinElmer). Otherwise, light and fluorescence imaging of all cells was performed in 24-well, 6-well or 10 cm CELLSTAR® plates (Greiner Bio-One), using an Olympus CellR imaging station. Light imaging of developing mouse embryos was performed in 35 mm culture dishes (Falcon BD), using an Olympus IX70 microscope.
CSES2-SO2/3 is a genetically-labeled cell line that expresses mCherry under the promoter of the pluripotency hallmark gene OCT-4, and GFP under the promoter of the early endodermal marker SOX17. Therefore, these cells are red while undifferentiated, and become green upon their differentiation into the endodermal lineage [Kopper & Benvenisty, Stem Cell Research 8:335-345 (2011)]. Green early endodermal progenitor cells were generated from the red undifferentiated cells, using an 8-day differentiation protocol as described by Duan et al. [Stem Cells 28:674-686 (2010)].
In order to further verify the selectivity of the PluriSIns, and rule out any potential assay-related interference, undifferentiated and differentiated CSES2-SO2/3 cells were subjected to microscopy imaging after 24 hours of exposure to PluriSIns.

For the compound `CNC(=O)c1cccc(NC(=O)N2CCC(Oc3ccccc3Cl)CC2)c1` [A939572, 4-(2-chlorophenoxy)-N-(3-(methylcarbamoyl)-phenyl)piperidine-1-carboxamide, reference compound], the “teratoma formation at the side injected with pre-treated cells” value in the assay on hPSC-derived teratomas was “protective effect against teratoma formation”. Also, the “increase in expression of spliced isoform sXBP1, ES cells” value in assay [1] is recorded as “approximately 2 fold”.
As to `O=C(NNc1ccccc1)c1ccncc1` [PluriSIn #1, isonicotinic acid N′-phenylhydrazide], on SCD1, the “SCD1 inhibition in an in vitro biochemical screen” value was “possible direct inhibitors of SCD1”. Besides, the “effect on undifferentiated cells” value in assay [2] was “eliminated undifferentiated cells”. For the same compound, the “effect on undifferentiated cells in a mixture of differentiated and undifferentiated cells” value in assay [2] (mixture of CSES2-SO2/3 ES and derived differentiated cells) was “also eliminated undifferentiated cells”. In addition, the “Incidence of teratoma formation, 1:1 mixture of undifferentiated and differentiated cells” value with hPSC-derived teratomas (cells pre-treated 48 h with 20 μM, injected subcutaneously) is 0/4. Also, the “teratoma formation at the side injected with pre-treated cells” value in the assay with hPSC-derived teratomas was “no teratoma is visible”. Moreover, the “Incidence of teratoma formation, undifferentiated cells only” value in the assay on hPSC-derived teratomas (injected subcutaneously) is given as 11/11; in the assay with hPSC-derived teratomas (injected subcutaneously, listed as PluriSn #1) it was 0/11. In addition, the “mice that developed teratomas, H9 ES cells” value in the assay on hPSC-derived teratomas (treated H9 ES cells injected) is 0/3. Also, the “increase in expression of spliced isoform sXBP1, ES cells” value in assay [1] is reported as “approximately 3.5 fold”.
Regarding `Cc1ccc(NNC(=O)C(O)(c2ccccc2)c2cccs2)cc1` (stereo not shown) [PluriSIn #6, 2-hydroxy-2-(thiophen-2-yl)-2-phenylacetic acid 4-methyl-N′-phenylhydrazide], the “SCD1 inhibition in an in vitro biochemical screen” value on SCD1 is on record as “possible direct inhibitors of SCD1”. Moreover, the “effect on undifferentiated cells” value in assay [2] is “eliminated the red undifferentiated cells”.
